Reference: patent US20050154232A1, “Nitrosodiphenylamine derivatives and their pharmaceutical use against oxidative stress pathologies” (priority 2002, published 2005)

Experiments:
[1] = Spontaneous release of nitric oxide, titrated as nitrites+nitrates (Griess reagent, nitrate reductase); conditions: nitrites+nitrates released; test product 150 μM, 4 hours at 37° C., pH 7.5 PBS buffer; compounds of formula I
Method: A solution of a compound of the formula I of the invention spontaneously releases nitric oxide. The nitrite ions resulting therefrom are titrated by colorimetry by means of a specific reagent (Griess). To take account of any release of nitrate ions in addition to the nitrites, bacterial nitrate reductase is added to the reaction medium to reduce the nitrate ions formed.
The reactions and measurements are carried out in transparent 96-well plates. The test products are dissolved at the time of use, at a concentration of 3 mM in dimethyl sulfoxide. 95 μl of a reagent containing nitrate reductase (0.18 U/ml in 100 mM pH 7.5 PBS buffer, 210 μM β-NADPH, 5 μM FAD) and 5 μl of the solution of the test product (final concentration of 150 μM) are then added to each well. After stirring, the mixtures are incubated for 4 hours at 37° C. The reaction is then stopped by adding 100 μl of Griess' reagent (Sigma G4410). The resulting mixture is stirred for 5 min at room temperature, and the optical density is then read at 540 nm. This value is proportional to the concentration of nitrites+nitrates in the medium. A calibration range is made for each plate, using NaNO2.
The results are expressed as μmol/l (μM) of nitrites+nitrates released in Table A for some of the compounds of the formula I given as examples below.

Human LDLs = assay: Oxidation of human LDL by cupric ions (fluorescence), antioxidant effect; assay type: biochemical
Method: Human LDLs placed in aqueous solution in the presence of cupric ions, become spontaneously oxidised on their protein component, apolipoprotein-B. This oxidation makes the particle fluorescent, which is exploited to measure a pharmacological effect.
The reactions and measurements are carried out in black 96-well plates. 10 μl of a solution of the test product dissolved in dimethyl sulfoxide are first mixed with 170 μl of a solution of human LDL at a concentration of 120 μg/ml and 20 μl of 100 μM CuCl2. After stirring, the mixture is incubated for 2 hours at 37° C., and a first fluorescence reading is taken (excitation at 360 nm, reading at 460 nm). The mixture is then incubated for a further 22 hours, to take a second reading under the same conditions. The difference is proportionately smaller the greater the antioxidant power of the test product. Probucol is used as reference product at a concentration of 10 μM.
The concentrations that inhibit 50% (IC50) of the oxidation are prepared from three concentrations of the test product. They are given in Table B below for some of the compounds of the formula I given as examples below.

[2] = human LDL + CuCl2, fluorescence 2 h vs 24 h at 37° C., compounds of formula I (Table B)
[3] = oxidation of human lipoproteins, compounds of formula II (Table C)

Row | SMILES | Nitrites-Nitrates [1] [µM] | IC50 (Human LDLs; [2]) [µM] | melting point [°C] | IC50 (Human LDLs; [3]) [µM]
1 | COc1ccc(N(N=O)c2ccc(C(=O)Nc3cccnc3)cc2)cc1 [Example 1b, 4-[1-(4-Methoxyphenyl)-2-oxohydrazino]-N-pyrid-3-ylbenzamide] | 63 | 4.6 | 167 to 169 | –
2 | COc1ccc(Nc2cccc(C(=O)Nc3cccnc3)c2)cc1 [Example 4a, 3-[(4-Methoxyphenyl)amino]-N-pyrid-3-ylbenzamide] | – | – | – | 9.1
3 | COc1ccc(N(N=O)c2cccc(C(=O)Nc3cccnc3)c2)cc1 [Example 4b, 3-[1-(4-Methoxyphenyl)-2-oxohydrazino]-N-pyrid-3-ylbenzamide] | 70 | 12.7 | – | –
4 | O=NN(c1ccc(C(=O)Nc2cccnc2)cc1)c1ccc([N+](=O)[O-])cc1 [Example 5b, 4-[1-(4-Nitrophenyl)-2-oxohydrazino]-N-pyrid-3-ylbenzamide] | 47 | – | – | –
5 | COc1ccc(N(N=O)c2ccc(C(=O)NCCN3CCN(C)CC3)cc2)cc1 [Example 6b, 4-[1-(4-Methoxyphenyl)-2-oxohydrazino]-N-[2-(4-methylpiperazin-1-yl)-ethyl]benzamide] | 58 | – | – | –
6 | COc1ccc(Nc2ccc(C(=O)Nc3cccc([N+](=O)[O-])c3)cc2)cc1 [Example 8a] | – | – | – | 10
7 | COc1ccc(N(N=O)c2ccc(C(=O)Nc3ccccn3)cc2)cc1 [Example 14b, 4-[1-(4-methoxyphenyl)-2-oxohydrazino]-N-pyrid-2-ylbenzamide] | 90 | – | – | –
8 | COc1ccc(N(N=O)c2ccc(C(=O)Nc3ccncc3)cc2)cc1 [Example 15b] | 82 | 4.8 | – | –
9 | COc1ccc(Nc2ccc(C(=O)Nc3ccccc3)cc2)cc1 [Example 33a] | – | – | – | 12.9
10 | COc1ccc(Nc2cccc(C(=O)NCc3cccnc3)c2)cc1 [Example 132a] | – | – | – | 7.7
11 | COc1ccc(N(N=O)c2cccc(C(=O)NCc3cccnc3)c2)cc1 [Example 132b] | 82 | 9.3 | – | –
12 | COc1ccc(Nc2cccc(C(=O)Nc3ccccn3)c2)cc1 [Example 134a] | – | – | – | 4.5
13 | COc1ccc(Nc2cccc(C(=O)Nc3ccncc3)c2)cc1 [Example 135a] | – | – | – | 7.5
14 | COc1ccc(N(N=O)c2cccc(C(=O)Nc3ccncc3)c2)cc1 [Example 135b] | 75 | 8.6 | – | –
15 | COc1ccc(Nc2ccc(S(=O)(=O)Nc3cccnc3)cc2)cc1 [Example 136a] | – | – | – | 19.8
